# Earlier results in US11759447B1, “Compound and method for treating diseases and disorders” (RCR BIOPHARMA, priority 2019, dated 2023).
# What was measured:
# [1] = tested on: dogs; conditions: IV
# [2] = tested on: dogs
# [3] = oral forms such as CBD treats
# [4] = tested on: dogs; conditions: high levels of hemp-derived CBD (<0.3% THC)
smiles,measurement,setting,value
"CCCCCc1cc(O)c2c(c1)OC(C)(C)[C@@H]1CCC(C)=C[C@@H]21 [THC, Δ-9-tetrahydrocannabinol]",dose causing Static Ataxia,[1],> 0.5 mg/kg
"COc1cccc(C2(O)CCCCC2CN(C)C)c1 (stereo not shown) [tramadol, Tramadol]",peak vertical force or vertical impulse versus placebo,[2],no improvement
"C=C(C)[C@@H]1CCC(C)=C[C@H]1c1c(O)cc(CCCCC)cc1O [CBD, Cannabidiol]","fraction of orally administered CBD ultimately absorbed, on average",[3],5-10%
same,dogs with ataxia,[4],2 of the 10
